Laboratory results: PubChem BioAssay (NCI)
“And” between values parts separate entries of the source, which are not always exact repeats. Identical values can stand only once.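 Briefly, cells in 96-well plates were exposed to five compound concentrations for 48 h, and endpoints were estimated by linear interpolation. GI50 = concentration required for 50% inhibition of growth. TGI: concentration producing complete growth inhibition.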

Columns and labels:
Test in all cases: NCI tumour cell line growth inhibition, 48 h
[1] = test system: SK-MEL-5 melanoma
[2] = test system: NCI-H23 lung
[3] = test system: HCC-2998 colon
[4] = test system: RPMI-8226 leukemia
[5] = test system: TK-10 renal
[6] = test system: UO-31 renal
[7] = test system: OVCAR-4 ovarian
[8] = test system: KM12 colon
[9] = test system: SNB-75 CNS
[10] = test system: RXF 393 renal

N=C1C(c2nc(-c3ccc(Br)cc3)cs2)=C(O)CN1Cc1cccnc1
GI50 [1]: 4350 nM
TGI [1]: 32500 nM
GI50 [2]: 22500 nM
TGI [2]: > 100000 nM
GI50 [3]: 24300 nM
TGI [3]: 80400 nM
GI50 [4]: 2880 nM
TGI [4]: 76500 nM
GI50 [5]: 2230 nM
TGI [5]: 45300 nM
GI50 [6]: 19700 nM
TGI [6]: > 100000 nM
GI50 [7]: 25100 nM
TGI [7]: > 100000 nM
GI50 [8]: 18900 nM
TGI [8]: > 100000 nM
TGI [9]: 22900 nM
GI50 [10]: 7980 nM
TGI [10]: 31300 nM

ClCc1cccc(Cn2cnc3c(Cl)ncnc32)c1
GI50 [1]: 2300 nM
TGI [1]: 6380 nM
GI50 [2]: 1920 nM
TGI [2]: 4070 nM
GI50 [3]: 407 nM
TGI [3]: 1750 nM
GI50 [4]: 3820 nM
TGI [4]: 16100 nM
GI50 [5]: 4590 nM
TGI [5]: 16100 nM
GI50 [6]: 14400 nM
TGI [6]: 35900 nM
GI50 [7]: 2350 nM
TGI [7]: 5690 nM
GI50 [8]: 3470 nM
TGI [8]: 13400 nM
GI50 [9]: 2090 nM
TGI [9]: 4560 nM
GI50 [10]: 2280 nM
TGI [10]: 24000 nM

C[C@@H]1C[C@@H](O)[C@]2(O)O[C@@H]3C[C@@]4(C=O)[C@@H](CC[C@@H]5[C@@H]4CC[C@]4(C)[C@@H](C6=CC(=O)OC6)CC[C@]54O)C[C@H]3O[C@@H]2O1
GI50 [1]: 24.7 nM
TGI [1]: 30.3 nM and 55 nM and 58.4 nM
GI50 [2]: 28.2 nM and 5 nM
GI50 [3]: 27.3 nM
TGI [3]: 582 nM and 134 nM
TGI [4]: 75.2 nM
GI50 [5]: 20.2 nM and 5 nM
TGI [5]: 98 nM and 77.5 nM and 55.8 nM
GI50 [6]: 14.3 nM
TGI [6]: 55.9 nM and 45.4 nM
GI50 [7]: 5.6 nM
TGI [7]: 53.1 nM and 12.8 nM
GI50 [8]: 72.2 nM and 34.6 nM
TGI [8]: 476 nM and 217 nM and 608 nM
GI50 [9]: 51 nM
TGI [9]: 91.9 nM and 220 nM and 288 nM
TGI [10]: 59.9 nM

CN1CC[C@@H](c2c(O)cc(O)c3c(=O)cc(-c4ccccc4Cl)oc23)[C@@H](O)C1
GI50 [1]: 63.1 nM
TGI [1]: 265 nM and 182 nM
GI50 [2]: 90.8 nM and 103 nM and 45.3 nM
TGI [2]: 230 nM and 301 nM and 189 nM
GI50 [3]: 137 nM and 41.7 nM
TGI [3]: 312 nM and 162 nM
GI50 [4]: 75.3 nM and 27.4 nM
TGI [4]: 233 nM and 1360 nM
GI50 [5]: 119 nM and 93.7 nM
TGI [5]: 34800 nM
GI50 [6]: 71.3 nM and 36.3 nM and 23.8 nM
TGI [6]: 876 nM and 164 nM and 1180 nM
GI50 [7]: 170 nM
TGI [7]: 680 nM and 3610 nM
GI50 [8]: 51.1 nM
TGI [8]: 26600 nM
GI50 [9]: 97.5 nM
TGI [9]: 250 nM and 89.4 nM
GI50 [10]: 48.1 nM and 21.8 nM and 19.6 nM
TGI [10]: 89.2 nM and 49.5 nM and 42.8 nM

O=C(Nc1ccc(N2CCNCC2)cc1)c1[nH]ncc1Nc1ncnc2sc3c(c12)CCC3
GI50 [1]: 381 nM
TGI [1]: 1790 nM
GI50 [2]: 268 nM
TGI [2]: 1850 nM
GI50 [3]: 620 nM
TGI [3]: 2190 nM
GI50 [4]: 670 nM
TGI [4]: 3580 nM
GI50 [5]: 410 nM
TGI [5]: 2050 nM
GI50 [6]: 431 nM
TGI [6]: 1840 nM
GI50 [7]: 321 nM
TGI [7]: 2260 nM
GI50 [8]: 219 nM
TGI [8]: 1330 nM
GI50 [9]: 65.7 nM
TGI [9]: 1590 nM
GI50 [10]: 394 nM
TGI [10]: 1890 nM

COc1ccc2c(c1)[nH]c(=O)c1c3cc(C)c(C)cc3cn21
GI50 [1]: < 15.8 nM
TGI [1]: 76.3 nM
GI50 [2]: 30.5 nM
TGI [2]: 392 nM
GI50 [3]: 23.5 nM
TGI [3]: 80.2 nM
GI50 [4]: < 10 nM
TGI [4]: 65.6 nM
GI50 [5]: 320 nM
TGI [5]: 1270 nM
GI50 [6]: < 11.9 nM
TGI [6]: 1720 nM
GI50 [7]: 32 nM
TGI [7]: 3950 nM
GI50 [8]: 29.2 nM
TGI [8]: 109 nM
GI50 [9]: < 10 nM
TGI [9]: 4370 nM
GI50 [10]: < 10 nM
TGI [10]: 1220 nM
